Assay results published in patent US20080090805A1, “CB-1 MODULATING COMPOUNDS AND THEIR USE” (ACADIA PHARMACEUTICALS INC., priority 2005, published 2008).

Molecular target: native CB1 receptors (Rattus norvegicus, UniProt P20272)
Assay: CB1 receptor rat binding assay ([3H]SR141716A, rat brain membranes)
Details: rat brain membranes, [3H]SR141716A; for Ki: read-out: Binding rat pKi (converted)

Sequence of native CB1 receptors (P20272 whole entry): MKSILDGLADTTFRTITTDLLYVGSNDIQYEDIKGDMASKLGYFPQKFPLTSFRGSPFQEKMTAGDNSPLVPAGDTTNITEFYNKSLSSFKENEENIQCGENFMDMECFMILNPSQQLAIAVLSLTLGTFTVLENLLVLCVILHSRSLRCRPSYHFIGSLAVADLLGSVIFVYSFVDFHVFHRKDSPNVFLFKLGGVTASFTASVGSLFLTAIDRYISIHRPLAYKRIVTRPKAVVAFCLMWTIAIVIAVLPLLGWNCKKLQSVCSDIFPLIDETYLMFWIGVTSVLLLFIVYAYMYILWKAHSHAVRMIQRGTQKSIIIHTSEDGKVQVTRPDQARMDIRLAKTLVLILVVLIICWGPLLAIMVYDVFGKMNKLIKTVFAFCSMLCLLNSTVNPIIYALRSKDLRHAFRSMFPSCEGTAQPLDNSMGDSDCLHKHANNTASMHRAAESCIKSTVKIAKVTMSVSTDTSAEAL

Binding rat Inh % [%]	Ki [nM]	Compound
84	6.31	O=C(NCc1ccco1)c1ccc2c(c1)N=C(c1ccc(Cl)c(Cl)c1)c1ccccc1S2 [drawing 1402]
80	39.8	CCCNC(=O)c1ccc2c(c1)N=C(c1ccc(OC)cc1)c1ccccc1S2 [drawing 1403]
81	39.8	CCOCCNC(=O)c1ccc2c(c1)N=C(c1ccc(Br)cc1)c1ccccc1S2 [drawing 1404]
92	39.8	CCCCNS(=O)(=O)c1ccc2c(c1)N=C(c1ccc(Cl)cc1)c1ccccc1S2 [drawing 1405]
98	39.8	CCCCNC(=O)c1ccc2c(c1)N=C(c1ccc(Cl)cc1Cl)c1ccccc1S2 [drawing 1406]
103	6.31	O=C(NCCc1cccnc1)c1ccc2c(c1)N=C(c1ccc(Cl)c(Cl)c1)c1ccccc1S2 [drawing 1407]
	6.31	O=C(NCc1cccc(Cl)c1)c1ccc2c(c1)N=C(c1ccc(F)cc1)c1ccccc1S2(=O)=O [drawing 1408]
	6.31	O=C(NCc1ccccc1)c1ccc2c(c1)N=C(c1ccc(F)cc1)c1ccccc1S2 [drawing 1409]
103	6.31	CCCCNC(=O)c1cc2c(cc1O)Sc1ccccc1C(c1ccc(Cl)cc1)=N2 [drawing 1410]
85	39.8	O=C(NCCc1ccccn1)c1ccc2c(c1)N=C(c1ccc(F)cc1)c1ccccc1S2 [drawing 1411]
67	39.8	COc1ccc(C2=Nc3cc(C(=O)NCc4ccncc4)ccc3Sc3ccccc32)cc1 [drawing 1412]
73	39.8	O=C(NC1CCC(F)(F)CC1)c1ccc2c(c1)N=C(c1ccccn1)c1ccccc1S2 [drawing 1414]
	6.31	O=C(NCc1ccccc1Cl)c1ccc2c(c1)N=C(c1cccc(Cl)c1)c1ccccc1S2 [drawing 1415]
	6.31	CCCCNC(=O)c1ccc2c(c1)N=C(C1CCCCC1)c1ccccc1S2 [drawing 1417]
105	6.31	O=C(NCCC(F)(F)F)c1ccc2c(c1)N=C(c1ccc(F)cc1)c1ccccc1S2 [drawing 1418]
79	39.8	O=C(NCc1ccccn1)c1ccc2c(c1)N=C(c1cccc(Br)c1)c1ccccc1S2 [drawing 1419]
	39.8	O=C(NCc1ccc(Cl)cc1Cl)c1ccc2c(c1)N=C(c1ccc(Cl)cc1)c1ccccc1S2 [drawing 1421]
	39.8	CC(NC(=O)c1ccc2c(c1)N=C(c1ccccc1F)c1ccccc1S2)c1ccccc1 (centres unmarked) [drawing 1422]
89	6.31	O=C(NN1CCCCC1)c1ccc2c(c1)N=C(c1ccc(Br)cc1)c1ccccc1S2 [drawing 1423]
60	6.31	O=C(NN1CCCCC1)c1ccc2c(c1)N=C(c1ccc(Cl)cc1)c1ccccc1S2 [drawing 1424]
90	6.31	Cc1cccc(C2=Nc3cc(C(=O)NC4CCC(F)(F)CC4)ccc3Sc3ccccc32)n1 [drawing 1425]

Binding rat Inh % [%]	Ki [nM]	Compound
85	6.31	CCCCNC(=O)c1ccc2c(c1)N=C(c1ccc(Cl)s1)c1cc(Cl)ccc1S2 [drawing 1426]
	39.8	CCCC1=Nc2cc(C(=O)NCc3ccccc3Cl)ccc2Sc2ccccc21 [drawing 1427]
80	50.1	CC(C)NC(=O)c1ccc2c(c1)N=C(c1ccc(F)cc1)c1ccccc1S2 [drawing 1429]
81	50.1	Cc1csc(CNC(=O)c2ccc3c(c2)N=C(c2ccc(F)cc2)c2ccccc2S3)c1 [drawing 1430]
	6.31	CC(NC(=O)c1ccc2c(c1)N=C(C1CCCCC1)c1ccccc1S2)c1ccccc1 (centres unmarked) [drawing 1431]
88	6.31	COc1ccc(C2=Nc3cc(C(=O)NN4[C@H](C)CCC[C@@H]4C)ccc3Sc3ccccc32)cc1 [drawing 1432]
112	6.31	O=C(NN1CCCCCC1)c1ccc2c(c1)N=C(c1ccc(F)cc1)c1ccccc1S2 [drawing 1433]
89	50.1	O=C(NC1CCCC1)c1ccc2c(c1)N=C(c1ccc(Cl)cc1)c1ccccc1S2 [drawing 1436]
60	50.1	COc1ccc(C2=Nc3cc(C(=O)NCc4cccnc4)ccc3Sc3ccccc32)cc1 [drawing 1438]
	6.31	CCN(CCNC(=O)c1ccc2c(c1)N=C(N1CCCCC1)c1ccccc1S2)c1ccccc1 [drawing 1439]
	7.94	O=C(NCCc1ccc(Cl)cc1)c1ccc2c(c1)N=C(c1ccccc1)c1ccccc1S2 [drawing 1440]
90	7.94	Cc1ccc(CNC(=O)c2ccc3c(c2)N=C(c2ccc(Cl)cc2F)c2ccccc2S3)o1 [drawing 1441]
68	50.1	O=C(NCc1ccncc1)c1ccc2c(c1)N=C(c1ccc(F)cc1)c1ccccc1S2 [drawing 1443]
	50.1	O=C(NCCc1ccccc1)c1ccc2c(c1)N=C(c1ccccc1F)c1ccccc1S2 [drawing 1444]
85	50.1	CC(C)NC(=O)c1ccc2c(c1)N=C(c1ccc(Cl)s1)c1ccccc1S2 [drawing 1445]
63	50.1	CCOCCNC(=O)c1ccc2c(c1)N=C(c1ccc(F)cc1)c1ccccc1S2 [drawing 1446]
108	7.94	CCCCNC(=O)c1ccc2c(c1)N=C(c1cccc(Cl)c1)c1cc(F)ccc1S2 [drawing 1447]
85	7.94	O=C(NCc1ccco1)c1ccc2c(c1)N=C(c1cccc(Cl)c1)c1ccccc1S2 [drawing 1448]
	7.94	O=C(NCc1cccc(Cl)c1)c1ccc2c(c1)N=C(c1ccccc1)c1ccccc1S2 [drawing 1449]
	7.94	O=C(NCCCc1ccccc1)c1ccc2c(c1)N=C(c1ccccc1)c1ccccc1S2 [drawing 1450]
72	50.1	O=C(Cc1ccccc1)NNC(=O)c1ccc2c(c1)N=C(c1ccc(Cl)cc1)c1ccccc1S2 [drawing 1451]

Binding rat Inh % [%]	Ki [nM]	Compound
114	50.1	O=C(NCCc1ccccn1)c1ccc2c(c1)N=C(c1ccc(Cl)c(Cl)c1)c1ccccc1S2 [drawing 1452]
72	50.1	NS(=O)(=O)c1ccc(CNC(=O)c2ccc3c(c2)N=C(c2ccc(F)cc2)c2ccccc2S3)cc1 [drawing 1454]
	7.94	CC(CNC(=O)c1ccc2c(c1)N=C(N1CCCCC1)c1ccccc1S2)c1ccccc1 (centres unmarked) [drawing 1455]
	7.94	O=C(NCc1cccc(Cl)c1)c1ccc2c(c1)N=C(c1ccc(Cl)cc1)c1cc(F)ccc1S2 [drawing 1456]
	7.94	O=C(NCCc1cccc(Cl)c1)c1ccc2c(c1)N=C(c1ccccc1)c1ccccc1S2 [drawing 1457]
90	7.94	COc1cccc(C2=Nc3cc(C(=O)NCc4ccc(C)o4)ccc3Sc3ccccc32)n1 [drawing 1458]
	50.1	O=C(NCCc1cccc(Cl)c1)c1ccc2c(c1)N=C(c1ccccc1F)c1ccccc1S2 [drawing 1459]
61	50.1	O=C(NCCc1ccccn1)c1ccc2c(c1)N=C(c1ccc(Br)cc1)c1ccccc1S2 [drawing 1460]
80	50.1	COCCNC(=O)c1ccc2c(c1)N=C(c1cccc(Cl)c1)c1ccccc1S2 [drawing 1461]
	50.1	O=C(NN1CCCCC1)c1ccc2c(c1)N=C(c1ccccc1)c1ccccc1S2 [drawing 1462]
82	7.94	O=C(NN1CCCCCC1)c1ccc2c(c1)N=C(c1ccc(Cl)cc1)c1ccccc1S2 [drawing 1463]
78	7.94	CCCCNC(=O)c1ccc2c(c1)N=C(c1ccc(Cl)cc1)c1cc(Cl)ccc1S2 [drawing 1464]
	7.94	CC(NC(=O)c1ccc2c(c1)N=C(c1cccc(Cl)c1)c1ccccc1S2)c1ccccc1 (centres unmarked) [drawing 1465]
98	7.94	O=C(NCCc1cccnc1)c1ccc2c(c1)N=C(c1ccc(Cl)s1)c1ccccc1S2 [drawing 1466]
97	50.1	O=C(NNCC(F)(F)F)c1ccc2c(c1)N=C(c1cccc(Cl)c1)c1ccccc1S2 [drawing 1467]
86	50.1	COCCNC(=O)c1ccc2c(c1)N=C(c1cccc(F)c1)c1ccccc1S2 [drawing 1468]
71	50.1	O=C(NCc1ccccn1)c1ccc2c(c1)N=C(c1ccc(Br)cc1)c1ccccc1S2 [drawing 1469]
	63.1	O=C(NCCc1ccccc1)c1ccc2c(c1)N=C(N1CCCCC1)c1ccccc1S2 [drawing 1470]
	7.94	CC(NC(=O)c1ccc2c(c1)N=C(c1ccc(F)cc1)c1ccccc1S2)c1ccccc1 (centres unmarked) [drawing 1471]

Compound	Binding rat Inh % [%]	Ki [nM]
O=C(NCc1ccccc1Cl)c1ccc2c(c1)N=C(c1ccccc1F)c1ccccc1S2 [drawing 1413]		39.8
Cc1ccc(CNC(=O)c2ccc3c(c2)N=C(c2ccc(Cl)cc2)c2ccccc2S3)o1 [drawing 1416]	88	6.31
O=C(NCc1cccc(Cl)c1)c1ccc2c(c1)N=C(N1CCCCC1)c1ccccc1S2(=O)=O [drawing 1428]		50.1
O=C(NCCCc1ccccc1)c1ccc2c(c1)N=C(c1ccc(Cl)cc1)c1ccccc1S2 [drawing 1434]		6.31
O=C(NCc1ccco1)c1ccc2c(c1)N=C(c1ccccc1F)c1ccccc1S2 [drawing 1435]	83	50.1
CCCC1=Nc2cc(C(=O)NC3CCC(C)CC3)ccc2Sc2ccccc21 (centres unmarked) [drawing 1437]		50.1
O=C(NCCC(F)(F)F)c1ccc2c(c1)N=C(c1ccsc1)c1ccccc1S2 [drawing 1442]	88	7.94
O=C(NCc1ccncc1)c1ccc2c(c1)N=C(c1ccc(Br)cc1)c1ccccc1S2 [drawing 1453]	80	50.1
